# Assay results published in article PMC9820070, “Synthesis, Photochemistry, Computational Study and Potential Application of New Styryl-Thiophene and Naphtho-Thiophene Benzylamines” (International Journal of Molecular Sciences, 2022).
# Assays:
# [1] = tested on: TNFα production in human PBMCs; test: TNFα production in LPS stimulated PBMCs; format: cell-based; settings: compound treatment and LPS stimulation
# [2] = molecular target: acetylcholinesterase from electric eel (Electrophorus electricus, UniProt O42275); test: biochemical
# [3] = molecular target: T1, butyrylcholinesterase from equine serum (Equus caballus, UniProt P81908); test: biochemical
# [4] = tested on: TNFα production in human PBMCs; parameters: method as in PMID 35228009; settings: earlier work; cited from earlier work
# [5] = molecular target: T1, butyrylcholinesterase from equine serum; settings: earlier work; cited from earlier work
# [6] = Acid resistance: pH change of UV spectra and NMR control at pH 1; format: physicochemical; settings: 1H NMR spectrum recorded at pH 1
# [7] = tested on: THP-1 cell line; test: THP-1 cell viability assay (CellTiter Glo); format: cell-based; settings: THP-1, 72 h incubation
# T1 sequence (P81908 whole entry): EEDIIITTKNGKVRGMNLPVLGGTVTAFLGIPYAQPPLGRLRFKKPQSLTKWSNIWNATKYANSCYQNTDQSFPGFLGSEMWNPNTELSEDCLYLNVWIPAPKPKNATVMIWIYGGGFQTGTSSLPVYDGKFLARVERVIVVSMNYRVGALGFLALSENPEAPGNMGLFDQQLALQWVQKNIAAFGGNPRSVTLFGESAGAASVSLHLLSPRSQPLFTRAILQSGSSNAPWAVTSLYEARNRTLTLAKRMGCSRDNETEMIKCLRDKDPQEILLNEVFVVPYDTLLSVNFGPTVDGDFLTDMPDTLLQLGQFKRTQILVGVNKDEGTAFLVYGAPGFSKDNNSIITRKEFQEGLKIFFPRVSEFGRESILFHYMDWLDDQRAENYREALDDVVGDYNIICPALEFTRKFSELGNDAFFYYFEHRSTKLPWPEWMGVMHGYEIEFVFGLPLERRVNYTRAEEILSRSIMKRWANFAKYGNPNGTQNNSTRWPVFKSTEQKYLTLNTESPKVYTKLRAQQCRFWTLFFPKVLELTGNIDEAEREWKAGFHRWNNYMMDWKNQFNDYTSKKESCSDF
# Chain of acetylcholinesterase from electric eel (O42275 24-633): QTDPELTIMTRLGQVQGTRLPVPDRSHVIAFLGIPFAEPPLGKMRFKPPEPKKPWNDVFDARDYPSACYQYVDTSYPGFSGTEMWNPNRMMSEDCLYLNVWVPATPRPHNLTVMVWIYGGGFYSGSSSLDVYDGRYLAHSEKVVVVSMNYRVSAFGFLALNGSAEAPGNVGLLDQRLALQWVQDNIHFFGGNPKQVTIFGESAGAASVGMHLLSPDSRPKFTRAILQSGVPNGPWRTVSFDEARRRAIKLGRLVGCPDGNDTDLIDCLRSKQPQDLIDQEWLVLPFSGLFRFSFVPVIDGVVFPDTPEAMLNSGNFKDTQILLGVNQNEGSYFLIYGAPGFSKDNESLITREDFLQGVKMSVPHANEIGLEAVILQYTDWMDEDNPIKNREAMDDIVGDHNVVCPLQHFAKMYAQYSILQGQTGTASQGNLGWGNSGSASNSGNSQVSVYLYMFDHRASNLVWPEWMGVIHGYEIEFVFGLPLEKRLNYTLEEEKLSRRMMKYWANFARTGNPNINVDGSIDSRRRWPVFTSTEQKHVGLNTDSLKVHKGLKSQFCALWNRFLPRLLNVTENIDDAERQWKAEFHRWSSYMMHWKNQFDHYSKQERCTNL
compound,measurement,setting,value
"Fc1ccc(CNc2ccc(/C=C/c3cccs3)cc2)cc1 [trans-2, (E)-N-(4-fluorobenzyl)-4-(2-(thiophen-2-yl)vinyl)aniline]",effect on TNFα production,[1],did not have any effect
"C(=C\c1cccs1)/c1ccc(NCc2cccs2)cc1 [trans-8, (E)-4-(2-(thiophen-2-yl)vinyl)-N-(thiophen-2-ylmethyl)aniline]","inhibition values, AChE",[2],smaller than 50%
same,"inhibition values, BChE",[3]; tested at final concentrations 20–250 μM,smaller than 50%
C=CCn1nnc2ccc3sccc3c21 [allyl-thienobenzotriazole IV],TNFα production in PBMCs in response to the LPS stimulus,[4],strongly inhibited
same,potency as inhibitor of eqBChE compared to the standard galantamine,[5],twice as potent
"C(=C/c1cccs1)/c1ccc(NCc2cccs2)cc1 [cis-8, (Z)-4-(2-(thiophen-2-yl)vinyl)-N-(thiophen-2-ylmethyl)aniline]",IC50,"[2]; electric eel AChE, Ellman's method",133 µM
same,"acid resistance (1H NMR, cis configuration retained)",[6],strong acid resistance
"COc1ccc(CNc2ccc3ccc4sccc4c3c2)cc1 [Compound 13, N-(4-methoxybenzyl)naphtho [2,1-b]thiophen-8-amine]",effect on cell viability (antiproliferative activity),[7],most potent
same,effect on TNFα production,[1],did not have any effect
"c1csc(CNc2ccc3ccc4sccc4c3c2)c1 [Compound 15, N-(thiophen-2-ylmethyl)naphtho [2,1-b]thiophen-8-amine]",IC50,"[3]; equine serum BChE, Ellman's method",~32.3 µM
"Fc1ccc(CNc2ccc3ccc4sccc4c3c2)cc1 [Compound 9, N-(4-fluorobenzyl)naphtho [2,1-b]thiophen-8-amine]",effect on cell viability (antiproliferative activity),[7],most potent
same,effect on TNFα production,[1],did not have any effect
